# Patent publication EP3572468B1, “CYANINE DYES AND THEIR USAGE FOR IN VIVO STAINING OF MICROORGANISMS” (PHILIPPS-UNIVERSITÄT MARBURG, priority 2018, dated 2019)
# How the values were obtained:
# [1] = tested on: antibiotic-sensitive Klebsiella pneumoniae (K. pneumoniae); test: Bacteria culture and staining: growth and FACS labeling of sensitive K. pneumoniae; type: cell-based; settings: 2.5 µM dye
# Protocol: Escherichia coli (E. coli) NEB5α (New England Biolabs) and antibiotic-resistant and -sensitive Klebsiella pneumoniae (K. pneumoniae) were cultured in Luria-Bertani (LB) solid medium (LB-Agar) overnight at 37°C. The source of the K. pneumoniae strands is of no relevance to the invention. The invention may be applied to all types of microorganisms (bacteria, viri, fungi etc.) or other cells, either contained within a sample or isolated from a sample. For staining, growth curve analysis and replating experiments bacteria were suspended in LB liquid medium at an OD600 nm of 1.0 and 800 µL were transferred into a culture tube containing 7.2 mL of LB liquid medium supplemented with DMSO or candidate dyes (2.5 µM) final concentration). Density of bacterial cultures was measured using an Ultrospec 10 Cell Density Meter with 600 nm LED source (Amersham Biosciences). […]
# Bacteria and macrophages were washed with PBS prior to flow cytometry and analysed using a Guava easyCyte flow cytometer (Millipore). FCS3.0 files were analysed using Flowing Software (http://flowingsoftware.btk.fi/). Cells were first gated in the forward- / side-scatter plot to exclude debries, followed by quadrant gating in plots using the fluorescence channels as shown above. […] Propidium iodide signal was recorded in the yellow channel.
# [2] = Molar extinction coefficient determination; type: physicochemical; settings: in milli-Q water; absorbance maximum at 625 nm
# Protocol: The concentration determination and measurement of full UV-Vis spectra were performed on a Tecan 20M at room temperature. The measurements were performed in a 1400 µL quarz cuvette with a pathlength of 1 cm in a volume of 1 mL.
# For the accurate determination of our compounds 6-TramTO-3 the extinction coefficient was calculated. A specific amount (< 2.00 mg) of the compound was weighted on a Mettler Toledo XP6 and dissolved in a known amount of milli-Q water. Increasing amounts of such stock solution were added into a 1 mL cuvette filled with 1 ml of milli-Q water. The corresponding absorbance of each addition was measured on a Tecan Spark 20M at the maximum at 625 nm and without exceeding 10% of the initial volume. In all the cases the absorbance was between 0.1 and 1 AU. to be in concordance with Lambert-Beer law (equation E2). A = ε l c [formula]
# In this equation (E2): A = absorbance of the solution; I = length of the cuvette; c = concentration; ε = molar extinction coefficient.
# The lineal regression of the obtained absorbance measurements versus the concentrations of 6-TramTO-3 allowed us to obtain the molar extinction coefficient. These measurements were repeated three times independently i.e. from three different stock solutions. The mean extinction coefficient and the standard deviation of 6-TramTO-3 at a wavelength of 625 nm in milli-Q water was 59403 ±646 M^-1cm^-1.
# The mean extinction coefficient and the standard deviation of 6-NH2TO-3 and 6-AzTO-3 were determined following the above described procedure. The extinction coefficient of 6-NH2TO-3 was determined in milli-Q water, whereas the extinction coefficient of 6-AzTO-3 was determined in DMSO due to its low aqueous solubility. […] For the spectrum of 6-AzTO-3 1% of DMSO was added for a better solubility. Fig. 20 and Fig. 21 show the linear regressions from the three independent measurements. Table 4 summarized the molar extinction coefficient obtained. Table 4: Determined mean extinction coefficients and standard deviations of 6-AzTO-3 in DMSO and 6-TramTO-3 and 6-NH2TO-3 in milli-Q water.
smiles,measurement,setting,value
"CC[n+]1ccc(/C=C/C=C2\Sc3ccccc3N2CCCCCCn2cc(CN)nn2)c2ccccc21.[I-] [6-TramTO-3, 4-((1E,3Z)-3-(3-(6-(4-(aminomethyl)-1H-1,2,3-triazol-1-yl)hexyl)benzo[d]thiazol-2(3H)-ylidene)prop-1-en-1-yl)-1-ethylquinolin-1-ium iodide]",bacterial growth in presence of dye,[1],grew normally
same,fluorescent labeling of live bacteria (FACS),[1]; OD600 = 2.0,successfully fluorescently labeled
same,mean extinction coefficient,[2],59403 ± 646 M⁻¹ cm⁻¹
